In this test the test system is GM-CSF-induced STAT5 phosphorylation in KU812 cells. To be noted: dasatinib alone 100 nM, GM-CSF 4 ng/ml for 10 minutes, FIG. 6.

Each structure is given as a SMILES string.

Protocol: KU812 cells (a myeloid precursor cell line established from the peripheral blood of a patient in blast crisis of CML) were cultured with 100 nM dasatinib with or without Bion-1 (100 nM) and constitutively stimulated with GM-CSF (4 ng/ml) for 10 minutes.

As for `Cc1nc(Nc2ncc(C(=O)Nc3c(C)cccc3Cl)s2)cc(N2CCN(CCO)CC2)n1` [dasatinib], the “inhibition of p-STAT5 phosphorylation in the presence of GM-CSF” value was “does not inhibit”.
